Test results reported in patent US12030878B2 (BRISTOL-MYERS SQUIBB COMPANY, priority 2017, dated 2024).

Tests used:
Type in all cases: cell-based
[1] = target: T1, human TLR9 (Homo sapiens, UniProt Q9NR96); experiment: TLR9 inhibition reporter assay (HEK-Blue SEAP); details: HEK-Blue cells overexpressing human TLR9, stimulated with ODN2006 5 nM, 22 hour incubation
T1 construct: host or cells: HEK-Blue cells
T1 sequence (Q9NR96 26-1032): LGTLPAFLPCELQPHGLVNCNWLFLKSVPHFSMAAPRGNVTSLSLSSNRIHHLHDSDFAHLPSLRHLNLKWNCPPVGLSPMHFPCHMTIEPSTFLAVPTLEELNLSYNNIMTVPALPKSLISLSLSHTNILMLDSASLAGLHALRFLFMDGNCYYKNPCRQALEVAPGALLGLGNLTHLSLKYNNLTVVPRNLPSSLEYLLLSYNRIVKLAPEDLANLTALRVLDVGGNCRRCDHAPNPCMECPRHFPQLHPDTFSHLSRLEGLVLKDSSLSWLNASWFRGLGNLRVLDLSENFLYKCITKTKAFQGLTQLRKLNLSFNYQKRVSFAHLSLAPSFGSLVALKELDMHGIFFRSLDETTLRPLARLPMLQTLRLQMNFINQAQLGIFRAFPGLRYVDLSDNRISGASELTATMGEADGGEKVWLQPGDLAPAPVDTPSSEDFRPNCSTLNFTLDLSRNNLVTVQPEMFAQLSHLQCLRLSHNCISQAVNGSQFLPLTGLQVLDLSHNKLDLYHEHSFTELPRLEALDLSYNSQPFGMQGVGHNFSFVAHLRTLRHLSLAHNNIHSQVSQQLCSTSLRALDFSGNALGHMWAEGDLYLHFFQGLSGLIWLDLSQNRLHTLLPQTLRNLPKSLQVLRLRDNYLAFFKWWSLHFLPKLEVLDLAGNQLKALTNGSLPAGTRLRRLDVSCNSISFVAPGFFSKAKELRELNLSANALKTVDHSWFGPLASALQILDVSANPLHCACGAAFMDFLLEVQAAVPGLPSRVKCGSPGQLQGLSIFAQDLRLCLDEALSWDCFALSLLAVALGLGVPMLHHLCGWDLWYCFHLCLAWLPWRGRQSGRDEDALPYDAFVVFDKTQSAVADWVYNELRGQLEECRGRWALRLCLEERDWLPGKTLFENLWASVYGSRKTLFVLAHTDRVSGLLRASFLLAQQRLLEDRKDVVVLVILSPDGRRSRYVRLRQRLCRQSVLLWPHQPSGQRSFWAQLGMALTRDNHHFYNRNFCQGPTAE
Procedure, shortened: (§1)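 HEK-Blue cells with NF-κB/AP-1-driven SEAP reporter; compounds 0.05 nM-50 μM, 30 min pre-treatment at room temperature, then agonist: gardiquimod 7.5 μM (TLR7), R848 15.9 μM (TLR8) or ODN2006 5 nM (TLR9). SEAP read after 22 h at 37 °C; percent inhibition versus agonist-plus-DMSO and reference-inhibitor wells.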

[2] = target: T2, human TLR7 (Homo sapiens, UniProt Q9NYK1); experiment: TLR7 inhibition reporter assay (HEK-Blue SEAP); details: HEK-Blue cells overexpressing human TLR7, stimulated with gardiquimod 7.5 μM, 22 hour incubation
T2 construct: host or cells: HEK-Blue cells
T2 sequence (Q9NYK1 27-1049): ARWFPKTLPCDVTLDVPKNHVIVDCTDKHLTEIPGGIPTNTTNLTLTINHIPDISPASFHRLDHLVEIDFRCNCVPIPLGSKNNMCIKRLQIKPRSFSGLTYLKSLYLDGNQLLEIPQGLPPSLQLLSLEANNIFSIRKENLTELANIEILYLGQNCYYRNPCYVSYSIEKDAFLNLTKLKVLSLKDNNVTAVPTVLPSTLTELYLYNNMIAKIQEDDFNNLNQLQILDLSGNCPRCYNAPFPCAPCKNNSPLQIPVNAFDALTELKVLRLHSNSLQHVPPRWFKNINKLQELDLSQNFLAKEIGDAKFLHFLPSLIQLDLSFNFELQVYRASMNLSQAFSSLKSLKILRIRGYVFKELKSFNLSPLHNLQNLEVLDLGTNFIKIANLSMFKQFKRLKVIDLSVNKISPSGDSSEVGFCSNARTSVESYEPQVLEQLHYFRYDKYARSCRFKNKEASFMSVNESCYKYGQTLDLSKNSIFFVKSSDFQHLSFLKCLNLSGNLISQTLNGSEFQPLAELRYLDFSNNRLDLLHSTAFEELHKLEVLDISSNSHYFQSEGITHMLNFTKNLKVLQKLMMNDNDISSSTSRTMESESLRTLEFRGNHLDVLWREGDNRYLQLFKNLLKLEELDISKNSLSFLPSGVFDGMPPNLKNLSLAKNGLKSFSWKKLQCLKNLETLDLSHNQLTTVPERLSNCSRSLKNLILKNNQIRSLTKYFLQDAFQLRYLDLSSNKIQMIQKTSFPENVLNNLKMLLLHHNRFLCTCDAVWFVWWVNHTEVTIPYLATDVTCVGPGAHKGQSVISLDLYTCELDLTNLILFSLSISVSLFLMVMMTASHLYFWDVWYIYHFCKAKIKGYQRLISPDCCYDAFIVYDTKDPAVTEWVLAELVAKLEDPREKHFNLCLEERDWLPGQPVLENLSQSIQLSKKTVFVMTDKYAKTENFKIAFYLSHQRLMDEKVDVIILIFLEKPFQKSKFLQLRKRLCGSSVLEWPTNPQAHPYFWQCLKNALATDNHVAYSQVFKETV
Procedure, shortened: as §1

[3] = target: T3, human TLR8 (Homo sapiens, UniProt Q9NR97); experiment: TLR8 inhibition reporter assay (HEK-Blue SEAP); details: HEK-Blue cells overexpressing human TLR8, stimulated with R848 15.9 μM, 22 hour incubation
T3 construct: host or cells: HEK-Blue cells
T3 sequence (Q9NR97 27-1041): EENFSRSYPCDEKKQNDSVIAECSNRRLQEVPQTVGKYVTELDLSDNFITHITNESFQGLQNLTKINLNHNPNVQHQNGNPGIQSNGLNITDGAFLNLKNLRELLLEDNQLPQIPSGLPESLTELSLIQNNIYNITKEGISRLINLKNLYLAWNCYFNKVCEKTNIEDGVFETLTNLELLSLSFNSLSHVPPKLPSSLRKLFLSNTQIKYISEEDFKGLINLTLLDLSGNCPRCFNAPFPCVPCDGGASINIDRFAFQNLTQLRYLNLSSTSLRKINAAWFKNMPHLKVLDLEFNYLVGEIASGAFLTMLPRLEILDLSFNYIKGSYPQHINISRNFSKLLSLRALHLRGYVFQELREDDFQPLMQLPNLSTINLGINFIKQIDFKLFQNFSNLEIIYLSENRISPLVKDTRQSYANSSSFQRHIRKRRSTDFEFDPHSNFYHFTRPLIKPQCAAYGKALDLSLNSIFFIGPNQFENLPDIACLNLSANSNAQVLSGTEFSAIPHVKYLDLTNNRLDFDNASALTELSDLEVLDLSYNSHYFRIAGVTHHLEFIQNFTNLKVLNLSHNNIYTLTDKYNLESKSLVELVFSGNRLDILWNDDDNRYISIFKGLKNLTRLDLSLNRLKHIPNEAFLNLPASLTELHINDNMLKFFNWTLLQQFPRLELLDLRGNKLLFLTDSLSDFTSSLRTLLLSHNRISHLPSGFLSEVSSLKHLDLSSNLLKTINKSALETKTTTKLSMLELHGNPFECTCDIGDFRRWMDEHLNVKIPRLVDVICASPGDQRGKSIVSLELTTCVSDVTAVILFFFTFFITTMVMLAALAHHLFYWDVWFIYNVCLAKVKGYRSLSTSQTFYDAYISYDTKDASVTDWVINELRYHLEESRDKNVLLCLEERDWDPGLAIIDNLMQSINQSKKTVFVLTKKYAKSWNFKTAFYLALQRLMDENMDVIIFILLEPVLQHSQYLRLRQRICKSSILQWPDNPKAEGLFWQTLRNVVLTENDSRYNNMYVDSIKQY
Procedure, shortened: as §1

Row | Compound | IC50 [1] [µM] | IC50 [2] [µM] | IC50 [3] [µM]
1 | Cc1cc(-c2[nH]c3ccc(OCc4ccncc4)cc3c2C(C)C)ccn1 [Example 174, 3-isopropyl-2-(2-methylpyridin-4-yl)-5-(pyridin-4-ylmethoxy)-1H-indole] | > 50 | 3.59 | 3.02
2 | Cc1cc(-c2[nH]c3ccc(OCCN4CCOCC4)cc3c2C(C)C)ccn1 [Example 175, 4-(2-((3-isopropyl-2-(2-methylpyridin-4-yl)-1H-indol-5-yl)oxy)ethyl)morpholine] | 9.94 | 0.439 | 0.0175
3 | Cc1cc(-c2[nH]c3ccc(OC4CCCNC4)cc3c2C(C)C)ccn1 (stereo not drawn) [Example 177, 3-isopropyl-2-(2-methylpyridin-4-yl)-5-(piperidin-3-yloxy)-1H-indole] | 1.29 | 0.0278 | 0.0334
4 | Cc1cc(-c2[nH]c3ccc(OC4CCN(C)CC4)cc3c2C(C)C)ccn1 [Example 179, 3-isopropyl-5-((1-methylpiperidin-4-yl)oxy)-2-(2-methylpyridin-4-yl)-1H-indole] | 1.44 | 0.0397 | 0.0025
5 | Cc1cc(-c2[nH]c3ccc(OCC4CCCNC4)cc3c2C(C)C)ccn1 (stereo not drawn) [Example 180, 3-isopropyl-2-(2-methylpyridin-4-yl)-5-(piperidin-3-ylmethoxy)-1H-indole] | 1.83 | 0.0377 | 0.0035
6 | Cc1cc(-c2[nH]c3ccc(OCC4CCCN(C)C4)cc3c2C(C)C)ccn1 (stereo not drawn) [Example 181, 3-isopropyl-5-((1-methylpiperidin-3-yl)methoxy)-2-(2-methylpyridin-4-yl)-1H-indole] | 0.915 | 0.0242 | 0.0059
7 | CCc1c(-c2ccnc(C)c2)[nH]c2ccc(O[C@H]3CCNC3)cc12 [Example 182, (S)-3-ethyl-2-(2-methylpyridin-4-yl)-5-(pyrrolidin-3-yloxy)-1H-indole] | 0.566 | 0.4 | 0.0192
8 | CCc1c(-c2ccnc(C)c2)[nH]c2ccc(OCC3CCN(C)CC3)cc12 [Example 183, 3-ethyl-5-((1-methylpiperidin-4-yl)methoxy)-2-(2-methylpyridin-4-yl)-1H-indole] | 0.512 | 0.131 | 0.012
9 | Cc1cc(-c2[nH]c3ccc(OC4CCC(OC5CCNCC5)CC4)cc3c2C(C)C)ccn1 (stereo not drawn) [Example 184, 3-isopropyl-2-(2-methylpyridin-4-yl)-5-((4-(piperidin-4-yloxy)cyclohexyl)oxy)-1H-indole] | 5.3 | 0.0519 | 0.0546
10 | Cc1cc(-c2[nH]c3ccc(OC4CCC(OC5CCNCC5)CC4)cc3c2C(C)C)ccn1 (stereo not drawn) [Example 185, 3-isopropyl-2-(2-methylpyridin-4-yl)-5-((4-(piperidin-4-yloxy)cyclohexyl)oxy)-1H-indole] | 2.99 | 0.0502 | 0.0226
11 | Cc1cc(-c2[nH]c3ccc(OC4CCN(C(C)C)CC4)cc3c2C(C)C)ccn1 [Example 186, 3-isopropyl-5-((1-isopropylpiperidin-4-yl)oxy)-2-(2-methylpyridin-4-yl)-1H-indole] | 2.67 | 0.0707 | 0.0031
12 | Cc1cc(-c2[nH]c3ccc(OCC4CCN(C)CC4)cc3c2C(C)C)ccn1 [Example 188, 3-isopropyl-5-((1-methylpiperidin-4-yl)methoxy)-2-(2-methylpyridin-4-yl)-1H-indole] | 1.54 | 0.0447 | 0.0021
13 | CCc1c(-c2ccnc(C)c2)[nH]c2ccc(OC3CCN(C)CC3)cc12 [Example 189, 3-ethyl-5-((1-methylpiperidin-4-yl)oxy)-2-(2-methylpyridin-4-yl)-1H-indole] | 1.08 | 0.166 | 0.0065
14 | CCc1c(-c2ccnc(C)c2)[nH]c2ccc(OC3CCN(C(C)C)C3)cc12 (stereo not drawn) [Example 190, 3-ethyl-5-((1-isopropylpyrrolidin-3-yl)oxy)-2-(2-methylpyridin-4-yl)-1H-indole] | 1.22 | 0.954 | 0.118
15 | Cc1cc(-c2[nH]c3ccc(OCC4CCN(C(C)C)CC4)cc3c2C(C)C)ccn1 [Example 191, 3-isopropyl-5-((1-isopropylpiperidin-4-yl)methoxy)-2-(2-methylpyridin-4-yl)-1H-indole] | 2.81 | 0.0842 | 0.0058
16 | CCc1c(-c2ccnc(C)c2)[nH]c2ccc(OCCN3CCCC3)cc12 [Example 192, 3-ethyl-2-(2-methylpyridin-4-yl)-5-(2-(pyrrolidin-1-yl)ethoxy)-H-indole] | 0.774 | 1.03 | 0.0508
17 | Cc1cc(-c2[nH]c3ccc(O[C@@H]4CCN(C)C4)cc3c2C(C)C)ccn1 [Example 193, (R)-3-isopropyl-2-(2-methylpyridin-4-yl)-5-((1-methylpyrrolidin-3-yl)oxy)-1H-indole] | 0.884 | 0.0151 | 0.0064
